Laboratory results as given in ChEMBL document CHEMBL1201862, “PubChem BioAssay data set” (2004).
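Compound exposure: 48 hours, 5 concentrations, 96-well plates. Abbreviation: GI50, concentration required for 50% inhibition of growth.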 The source made the active and inactive calls. No stated cut-off is given here; in the data, active = GI50 up to about 1.1 µM and inactive = higher.

Assays:
Experiment in all cases: growth of human tumour cells (NCI), 48 h
UACC-62 = system: UACC-62
NCI-H460 = system: NCI-H460
MCF7 = system: MCF7
Malme-3M = system: Malme-3M
NCI-H226 = system: NCI-H226
MDA-MB-435 = system: MDA-MB-435
SNB-75 = system: SNB-75
SK-OV-3 = system: SK-OV-3
K562 = system: K562
SN12C = system: SN12C
OVCAR-4 = system: OVCAR-4
M14 = system: M14
SNB-19 = system: SNB-19
Hs-578T = system: Hs-578T
SK-MEL-2 = system: SK-MEL-2
EKVX = system: EKVX
T47D = system: T47D
KM12 = system: KM12
NCI-H522 = system: NCI-H522
NCI-H23 = system: NCI-H23
HCC 2998 = system: HCC 2998
TK-10 = system: TK-10
ACHN = system: ACHN
U-251 = system: U-251
CAKI-1 = system: CAKI-1
RPMI-8226 = system: RPMI-8226
SR = system: SR
SF-295 = system: SF-295
PC-3 = system: PC-3
SF-539 = system: SF-539
786-0 = system: 786-0
SK-MEL-5 = system: SK-MEL-5
CCRF-CEM = system: CCRF-CEM
BT-549 = system: BT-549
COLO 205 = system: COLO 205
OVCAR-8 = system: OVCAR-8
MDA-N = system: MDA-N
NCI/ADR-RES = system: NCI/ADR-RES
A498 = system: A498
DU-145 = system: DU-145
MOLT-4 = system: MOLT-4
MDA-MB-231 = system: MDA-MB-231
HT-29 = system: HT-29
OVCAR-5 = system: OVCAR-5
UACC-257 = system: UACC-257
RXF 393 = system: RXF 393
HOP-62 = system: HOP-62
IGROV-1 = system: IGROV-1
A549 = system: A549
OVCAR-3 = system: OVCAR-3
SF-268 = system: SF-268
UO-31 = system: UO-31
HCT-116 = system: HCT-116
HCT-15 = system: HCT-15
SK-MEL-28 = system: SK-MEL-28
HOP-92 = system: HOP-92
SW-620 = system: SW-620
LOX IMVI = system: LOX IMVI

With `Cc1cc(N(CCC#N)CCC#N)ccc1C(/N=N/c1ccc(C(=O)O)cc1)=N\NC(=O)c1ccccc1` the GI50 (UACC-62) was 39.8 µM (inactive), the GI50 (NCI-H460) was 22.9 µM (inactive) and the GI50 (MCF7) was 22.8 µM (inactive). The GI50 (Malme-3M) was 22.5 µM (inactive), the GI50 (NCI-H226) was 40.9 µM (inactive) and the GI50 (MDA-MB-435) was 3.94 µM (inactive). The GI50 (SNB-75) was 34.3 µM (inactive), the GI50 (SK-OV-3) was 49.2 µM (inactive) and the GI50 (K562) was 12.7 µM (inactive). The GI50 (SN12C) was 47.3 µM (inactive), the GI50 (OVCAR-4) was > 100 µM (inactive) and the GI50 (M14) was 36.6 µM (inactive). The GI50 (SNB-19) was 50.8 µM (inactive), the GI50 (Hs-578T) was 14.4 µM (inactive) and the GI50 (SK-MEL-2) was > 100 µM (inactive). The GI50 (EKVX) was > 100 µM (inactive), the GI50 (T47D) was 43.8 µM (inactive) and the GI50 (KM12) was 18.2 µM (inactive). For the same compound, the GI50 (NCI-H522) was 13.2 µM (inactive), the GI50 (NCI-H23) was 17.7 µM (inactive) and the GI50 (HCC 2998) was 17.3 µM (inactive). The GI50 (TK-10) was > 100 µM (inactive), the GI50 (ACHN) was 59.7 µM (inactive) and the GI50 (U-251) was 34.8 µM (inactive). For the same compound, the GI50 (CAKI-1) was > 100 µM (inactive), the GI50 (RPMI-8226) was > 100 µM (inactive) and the GI50 (SR) was 6.08 µM (inactive). The GI50 (SF-295) was 23.9 µM (inactive), the GI50 (PC-3) was 26.1 µM (inactive) and the GI50 (SF-539) was 16.3 µM (inactive). For the same compound, the GI50 (786-0) was 41.3 µM (inactive), the GI50 (SK-MEL-5) was 19.5 µM (inactive) and the GI50 (CCRF-CEM) was 30.4 µM (inactive). The GI50 (BT-549) was 55.6 µM (inactive), the GI50 (COLO 205) was 28.5 µM (inactive) and the GI50 (OVCAR-8) was 28.1 µM (inactive). For the same compound, the GI50 (MDA-N) was 4.31 µM (inactive), the GI50 (NCI/ADR-RES) was 66.8 µM (inactive) and the GI50 (A498) was 22.3 µM (inactive). The GI50 (DU-145) was 71.4 µM (inactive), the GI50 (MOLT-4) was 47.1 µM (inactive) and the GI50 (MDA-MB-231) was 57.8 µM (inactive). For the same compound, the GI50 (HT-29) was 17.3 µM (inactive), the GI50 (OVCAR-5) was > 100 µM (inactive) and the GI50 (UACC-257) was 65.2 µM (inactive). For the same compound, the GI50 (RXF 393) was 17.7 µM (inactive), the GI50 (HOP-62) was 32.4 µM (inactive) and the GI50 (IGROV-1) was 50.2 µM (inactive). For the same compound, the GI50 (A549) was 25.8 µM (inactive), the GI50 (OVCAR-3) was > 10 µM (inactive) and the GI50 (SF-268) was 53.8 µM (inactive). The GI50 (UO-31) was 42.7 µM (inactive), the GI50 (HCT-116) was 35 µM (inactive) and the GI50 (HCT-15) was 20.9 µM.
`N#CC1=C(C#N)/C(=C(\C#N)C(C#N)C#N)N=C1N` was tested, and the GI50 (UACC-62) was 15.1 µM (inactive), the GI50 (SK-MEL-28) was 21.1 µM (inactive) and the GI50 (NCI-H460) was 28.6 µM (inactive). The GI50 (MCF7) was 45.8 µM (inactive), the GI50 (Malme-3M) was 17.1 µM (inactive) and the GI50 (NCI-H226) was 30 µM (inactive). For the same compound, the GI50 (MDA-MB-435) was 16.9 µM (inactive), the GI50 (SNB-75) was 41.8 µM (inactive) and the GI50 (SK-OV-3) was 57.9 µM (inactive). The GI50 (K562) was 31.5 µM (inactive), the GI50 (SN12C) was 49.4 µM (inactive) and the GI50 (OVCAR-4) was 28.2 µM (inactive). For the same compound, the GI50 (M14) was 15.6 µM (inactive), the GI50 (SNB-19) was 51.9 µM (inactive) and the GI50 (Hs-578T) was 28.2 µM (inactive). For the same compound, the GI50 (SK-MEL-2) was 14.7 µM (inactive), the GI50 (EKVX) was 43.9 µM (inactive) and the GI50 (T47D) was > 100 µM (inactive). For the same compound, the GI50 (KM12) was 64.4 µM (inactive), the GI50 (NCI-H522) was 13.8 µM (inactive) and the GI50 (NCI-H23) was 32.1 µM (inactive). The GI50 (HCC 2998) was 33.4 µM (inactive), the GI50 (TK-10) was > 32.6 µM (inactive) and the GI50 (ACHN) was 33.3 µM (inactive). For the same compound, the GI50 (HOP-92) was 28.2 µM (inactive), the GI50 (U-251) was 35.6 µM (inactive) and the GI50 (SW-620) was 28.5 µM (inactive). For the same compound, the GI50 (CAKI-1) was 46.2 µM (inactive), the GI50 (RPMI-8226) was 32.6 µM (inactive) and the GI50 (SR) was 25.2 µM (inactive). The GI50 (SF-295) was 31.2 µM (inactive), the GI50 (LOX IMVI) was 19.1 µM (inactive) and the GI50 (PC-3) was 28.7 µM (inactive). The GI50 (SF-539) was 22.4 µM (inactive), the GI50 (786-0) was 39.4 µM (inactive) and the GI50 (SK-MEL-5) was 17.3 µM (inactive). For the same compound, the GI50 (CCRF-CEM) was 8.07 µM (inactive), the GI50 (BT-549) was 24.4 µM (inactive) and the GI50 (COLO 205) was 26.9 µM (inactive). The GI50 (OVCAR-8) was 52 µM (inactive), the GI50 (MDA-N) was 15.4 µM (inactive) and the GI50 (NCI/ADR-RES) was 50.8 µM (inactive). For the same compound, the GI50 (A498) was 25.9 µM (inactive), the GI50 (DU-145) was 38.9 µM (inactive) and the GI50 (MOLT-4) was 13.4 µM (inactive). For the same compound, the GI50 (MDA-MB-231) was 91.4 µM (inactive), the GI50 (HT-29) was 23.5 µM (inactive) and the GI50 (OVCAR-5) was 33.5 µM (inactive). The GI50 (UACC-257) was 19.6 µM (inactive), the GI50 (RXF 393) was 31.9 µM (inactive) and the GI50 (HOP-62) was 26.7 µM (inactive). For the same compound, the GI50 (IGROV-1) was 50.1 µM (inactive), the GI50 (A549) was 21.4 µM (inactive) and the GI50 (OVCAR-3) was 34.5 µM (inactive). The GI50 (SF-268) was 32.7 µM (inactive), the GI50 (UO-31) was 35.5 µM (inactive) and the GI50 (HCT-116) was 27.4 µM (inactive). It also gave a GI50 (HCT-15) of 22.6 µM.
